We go through 1 compound from article doi:10.1101/2025.04.09.647920v1, “TIR immune signaling is blocked by phosphorylation to maintain growth in plants and animals” (biorxiv, 2025).

The target of this assay is T1, RBA1 (Arabidopsis thaliana, UniProt F4HT77).
T1 construct: TIR-only protein, recombinant from insect cells
T1 sequence (F4HT77 1-363): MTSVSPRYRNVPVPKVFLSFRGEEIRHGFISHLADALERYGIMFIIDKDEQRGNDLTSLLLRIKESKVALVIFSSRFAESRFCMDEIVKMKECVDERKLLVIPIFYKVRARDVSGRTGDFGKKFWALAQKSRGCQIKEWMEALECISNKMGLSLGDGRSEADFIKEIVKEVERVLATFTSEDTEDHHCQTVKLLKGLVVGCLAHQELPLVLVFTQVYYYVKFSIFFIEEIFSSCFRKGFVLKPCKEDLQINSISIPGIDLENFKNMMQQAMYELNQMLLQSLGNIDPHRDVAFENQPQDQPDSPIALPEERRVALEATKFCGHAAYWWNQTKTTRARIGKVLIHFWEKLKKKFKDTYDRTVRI
Briefly: LC-MS/MS NADase assay. The format is biochemical. The note with it: in vitro.

In the case of `NC(=O)c1ccc[n+]([C@@H]2O[C@H](COP(=O)(O)OP(=O)(O)OC[C@H]3O[C@@H](n4cnc5c(N)ncnc54)[C@H](O)[C@@H]3O)[C@@H](O)[C@H]2O)c1` [NAD^+], the “LC-MS/MS NADase assay” value is given as “Recombinant RBA1 protein purified from insect cells cleaved NAD^+ into nicotinamide (Nam)”.
